Measured values reported in PMC6968641, “N-monoarylacetothioureas as potent urease inhibitors: synthesis, SAR, and biological evaluation” (Journal of Enzyme Inhibition and Medicinal Chemistry, 2019).
≈ marks a conversion by molar mass, not a printed value. Like-named read-outs stand apart in the source and are kept apart here.

What was measured:
[1] = Cytotoxicity MTT assay, L-02; format: cell-based; conditions: human, L-02 cells (normal hepatic cell line), 25 μg/mL
Experimental: (§1) The stock solutions of the selected compounds (250 µg/mL, in PBS) were prepared in medium. L-02 cells and P69 cells were grown in medium (90% RPMI-1640 medium, 10% foetal bovine serum, 1% penicillin/streptomycin) and maintained at 37 °C in a humidified atmosphere containing 5% CO2, respectively. Cells were seeded in 96-well cell culture plates. On the day when seeding, the cells were exposed to 250 µg/mL of compounds and further cultured for 72 h at 37 °C. Cell proliferation was then determined using the thiazolyl blue tetrazolium bromide (MTT) assay.

Jack bean urease [2] = molecular target: T1, Jack bean urease (Canavalia ensiformis, UniProt P07374); experiment: Ligand affinity by surface plasmon resonance (SPR); format: binding
T1 construct: purchased
T1 sequence (P07374 whole entry, looked up): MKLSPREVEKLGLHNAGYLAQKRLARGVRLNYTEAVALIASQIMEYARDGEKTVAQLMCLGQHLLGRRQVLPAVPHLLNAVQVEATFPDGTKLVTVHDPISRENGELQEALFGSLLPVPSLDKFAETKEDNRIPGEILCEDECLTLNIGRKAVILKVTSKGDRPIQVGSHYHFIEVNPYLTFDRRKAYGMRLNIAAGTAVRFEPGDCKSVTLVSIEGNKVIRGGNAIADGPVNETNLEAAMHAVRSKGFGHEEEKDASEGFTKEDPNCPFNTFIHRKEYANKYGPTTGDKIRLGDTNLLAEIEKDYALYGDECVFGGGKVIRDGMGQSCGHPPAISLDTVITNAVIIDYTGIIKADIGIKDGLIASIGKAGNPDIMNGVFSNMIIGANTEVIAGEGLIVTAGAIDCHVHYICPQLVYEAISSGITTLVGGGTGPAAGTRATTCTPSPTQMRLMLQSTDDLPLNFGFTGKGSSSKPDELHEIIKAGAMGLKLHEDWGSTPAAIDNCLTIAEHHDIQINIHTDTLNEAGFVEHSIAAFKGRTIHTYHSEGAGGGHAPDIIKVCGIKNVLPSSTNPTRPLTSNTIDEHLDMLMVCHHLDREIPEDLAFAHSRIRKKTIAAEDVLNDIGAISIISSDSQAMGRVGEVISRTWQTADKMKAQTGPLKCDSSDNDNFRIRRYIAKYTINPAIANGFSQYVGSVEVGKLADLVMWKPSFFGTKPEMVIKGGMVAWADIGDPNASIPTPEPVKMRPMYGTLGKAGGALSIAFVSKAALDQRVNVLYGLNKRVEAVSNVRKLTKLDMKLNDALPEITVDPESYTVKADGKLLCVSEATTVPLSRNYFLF
Experimental: The binding kinetics of selected compounds were assayed via surface plasmon resonance (SPR) using an OPEN SPR instrument (Nicoya Lifesciences, Kitchener, Canada). First, urease dissolved (50 µg/mL) in PBS buffer (1 mM KH2PO4, 155 mM NaCl, 3 mM Na2HPO4-12H2O, pH 7.4), was immobilised to a CM5 chip using a standard amine coupling procedure. Then, SPR measurements were carried out in PBS, and stock solutions were diluted in the same buffer. Data were collected with OpenSPR control software. Experiments were performed by monitoring the refractive index changes as a function of time under constant flow rate of 20 µL/min. The relative amount of inhibitor bound to the urease was determined by measuring the net increase in refractive index over time compared to control running buffer. There is an inline subtraction of reference surface during the run. This change is usually reported in response units (RU). Sensograms were processed and analysed using TraceDrawer software. The binding curves were fit to determine the equilibrium dissociation constant (KD).
In the present paper, the pure Jack bean urease from commercial was used for this assay because of non-availability of pure H. pylori urease. […] For efficient and tight ligand binding, the rate constant koff is of particular interest, because koff has a potential to differentiate indistinguishable compounds with similar affinities.

H. pylori urease = molecular target: T2, H. pylori urease (Helicobacter pylori, UniProt P69996); experiment: Urease inhibition, extracted H. pylori urease (indophenol method); format: biochemical; conditions: IC50 Extracted urease, extracted H. pylori urease
T2 construct: endogenous in cells; host or cells: H. pylori ATCC 43504; sonicated, supernatant desalted on Sephadex G-25 (crude extract)
T2 sequence (P14916 whole entry): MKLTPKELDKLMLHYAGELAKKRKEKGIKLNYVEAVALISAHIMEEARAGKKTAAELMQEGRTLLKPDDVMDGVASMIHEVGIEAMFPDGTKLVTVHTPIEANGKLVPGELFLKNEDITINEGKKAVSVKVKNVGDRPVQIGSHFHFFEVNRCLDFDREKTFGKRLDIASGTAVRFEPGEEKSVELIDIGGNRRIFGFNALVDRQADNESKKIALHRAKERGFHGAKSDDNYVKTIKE
T2 sequence (P69996 whole entry): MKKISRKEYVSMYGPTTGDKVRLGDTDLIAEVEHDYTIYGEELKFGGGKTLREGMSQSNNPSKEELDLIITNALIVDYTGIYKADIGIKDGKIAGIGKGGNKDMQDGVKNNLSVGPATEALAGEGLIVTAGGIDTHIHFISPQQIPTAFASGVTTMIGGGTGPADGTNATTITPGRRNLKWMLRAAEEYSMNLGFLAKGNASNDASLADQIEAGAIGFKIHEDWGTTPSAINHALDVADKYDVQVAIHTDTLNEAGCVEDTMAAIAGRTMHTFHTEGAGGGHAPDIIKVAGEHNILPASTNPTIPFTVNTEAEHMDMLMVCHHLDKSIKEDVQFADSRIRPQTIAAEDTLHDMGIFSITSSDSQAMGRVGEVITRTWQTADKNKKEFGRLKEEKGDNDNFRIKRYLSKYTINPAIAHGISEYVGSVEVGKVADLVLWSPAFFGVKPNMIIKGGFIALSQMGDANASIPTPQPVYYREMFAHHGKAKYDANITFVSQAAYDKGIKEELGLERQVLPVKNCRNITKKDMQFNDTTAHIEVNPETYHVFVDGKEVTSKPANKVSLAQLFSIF
Experimental: For urease inhibition assays, 50 mL broth cultures (2.0 × 10^8 CFU/mL) were centrifuged (5000×g, 4 °C) to collect the bacteria, and after washing twice with phosphate-buffered saline (pH 7.4), the H. pylori precipitation was stored at –80 °C for 8 h, and then was returned to room temperature, and after addition of 3 mL of distilled water and protease inhibitors, sonication was performed for 60 s. Following centrifugation (15,000×g, 4 °C), the supernatant was desalted through Sephadex G-25 column (PD-10 columns, Amersham Pharmacia Biotech, Uppsala, Sweden). The resultant crude urease solution was added to an equal volume of glycerol and stored at 4 °C until use in the experiment.
Urease activity was determined in the 96-well assay plate by measuring ammonia production using the indophenol method as described by Weatherburn[20]. Briefly, to each well, 50 µL of urea (10 mM) in phosphate buffer solution was added in a mixture of 25 µL (10 U) of H. pylori urease and 25 µL of the test compound, which was incubated at 37 °C for 0.5 h. Fifty µL of phenol reagent (containing 127 mM phenol and 0.168 mM sodium nitroprusside) and 50 µL of alkali reagent (containing 125 mM NaOH and 0.168 mM NaOCl) were added in turn. The resulted mixture was incubated at 37 °C for another 0.5 h for colouration developing. The increasing absorbance was measured at 630 nm after 50 min using a microplate reader (Molecular Devices, San Jose, CA). Percentage inhibitions were calculated from the following formula (Equation (1)). Experiments were performed in triplicate and AHA was used as reference drug, and the IC50 value was determined as the concentration of compound that give 50% inhibition of maximal activity. As for the urease assay of intact cells, 25 µL (10 U) of H. pylori urease was replaced by 25 µL of cell suspension (4.0 × 10^7 CFU/mL).

[3] = Cytotoxicity MTT assay, P69; format: cell-based; conditions: human, P69 cells (normal prostate cell line), 25 μg/mL
Experimental: as §1

[4] = molecular target: T3, urease in intact H. pylori cell (Helicobacter pylori, UniProt P69996); experiment: Urease inhibition in intact H. pylori cell (indophenol method); format: cell-based
T3 construct: H. pylori urease was replaced by 25 µL of cell suspension (4.0 × 10^7 CFU/mL); endogenous in cells; host or cells: intact H. pylori ATCC 43504 cells
T3 sequence (P69996 whole entry): as above
T3 sequence (P14916 whole entry, further chain): as the sequence (P14916 whole entry) above

Jack bean urease [5] = molecular target: T1, Jack bean urease; experiment: Enzyme kinetic study (indophenol method); format: biochemical
Experimental: Based on the indophenol method, the velocity of ammonia production (V) was measured in the presence of concentration gradients of urea ([S]) for every specific concentration of selected compounds ([I]). Nonlinear fitting curves to data of V and [S] were used to determine the type of enzyme inhibition based on the general kinetics equation (Equation (1)). Subsequently, the resulted fitting constants ( Km/Vmax(1+[I]/Ki) or 1/Vmax(1+[I]/Ki′) ) and [I] were linearly fitted to give kinetic parameters Ki and Ki', respectively. The experimental assay was performed against a pure urease (Jack bean urease) for the consideration of precision. (1) V=Vmax[S]/Km(1+[I]/Ki)+(1+[I]/K^′i)[S]
Mazzei et al. confirmed that urease shared the mechanism of catalysis and inhibition regardless of the biological sources[27]^,[28]. For excluding the possible interference, a pure urease (Jack bean urease) was therefore used for kinetic assays. As an example, Figure 2 describes the preincubation-time dependence of urease inhibition by b19. The suppressed urease activity maintained at relatively constant values with the increasing preincubation time under different concentrations of b19, resulting in nearly equal IC50 values.
Similarly, kinetic parameters ( Ki and Ki' ) and inhibition types of other compounds were also determined and are shown in Table 3.

H. pylori = experiment: Minimum inhibitory concentration, broth microdilution (CLSI); format: cell-based, Helicobacter pylori (ATCC 43504); conditions: Helicobacter pylori
Experimental: H. pylori (ATCC 43504; […] The minimum inhibitory concentration (MIC) values were determined using the broth microdilution protocol according to the methods of the Clinical and Laboratory Standards Institute (CLSI)[21].

Q: For `NC(=S)NC(=O)Cc1ccc(F)cc1` [b23], which viability at 72 h, 25 µg/mL [1] is on record?
A: Its viability at 72 h, 25 µg/mL is 96.1%.

Q: And the Kd (Jack bean urease [2])?
A: The Kd was 0.569 ± 0.0216 µM.

Q: And the kon (Jack bean urease [2]; pH 7.4)?
A: Its kon is 54300 M⁻¹ s⁻¹.

Q: What about the koff (Jack bean urease [2]; pH 7.4, SPR, immobilised urease, PBS pH 7.4) of the same molecule?
A: Its koff is 0.0309 s⁻¹.

Q: What about the IC50 (H. pylori urease) of the same molecule?
A: The IC50 was 14.6 ± 1 µM.

Q: And the viability at 72 h, 25 µg/mL [3]?
A: Its viability at 72 h, 25 µg/mL is 97.6%.

Q: What about the melting point of the same molecule?
A: The melting point was 165.4 to 166.5 °C.

Q: And the IC50 [4]?
A: Its IC50 is 93.6 ± 5.5 µM.

Q: What about the Ki (Jack bean urease [5]) of the same molecule?
A: The Ki was 3.53 µM.

Q: And the Type of inhibition (Jack bean urease [5]; Jack bean urease)?
A: Its Type of inhibition is “Reversible”.

Q: And the “Ki'” value (Jack bean urease [5]; dissociation constant of urease-urea-inhibitor complex)?
A: Its value is 9.67 µM.

Q: And the MIC (H. pylori; pH=4.0, read-out: MIC pH=4.0)?
A: Its MIC is 8 µM (≈ 1.7 µg/mL).

Q: And the MIC (H. pylori; pH=7.0, read-out: MIC pH=7.0)?
A: Its MIC is > 64 µM.
